From US20110021554A1, “IMMUNE RESPONSE MODIFIER FORMULATIONS AND METHODS” (priority 2004, published 2011) come the findings set out here.

This data set in a line: Effect of sodium chloride on solubility of the drug. The class given is physicochemical. Particulars: apparently due to salt formation.

As for `CCc1nc2c(N)nc3ccccc3c2n1CCCCNS(C)(=O)=O` [N-[4-(4-amino-2-ethyl-1H-imidazo[4,5-c]quinolin-1-yl)butyl]methanesulfonamide], the “Solubility of the drug in presence of sodium chloride” value was “reduces solubility of the drug”.
